This note sets out measurements from PMC9016803, “Mitochondria-targeted half-sandwich iridium(III)-Cp*-arylimidazophenanthroline complexes as antiproliferative and bioimaging agents against triple negative breast cancer cells MDA-MB-468” (RSC Advances, 2022).

This data set can be described thus: Stability study by time-dependent UV-vis spectroscopy. Format: physicochemical. The method, then: The stability studies of complex IrL1 were conducted in […] different solvents, i.e. aqueous DMSO (H2O : DMSO = 9 : 1) and aqueous GSH medium (Fig. 3) respectively in presence or absence of different concentrations of NaCl. It is essential that the complexes remain stable in the biological environments of cells, and thus the stability studies were performed. […] It has been reported that many cancer cells become resistant to various drugs by increasing their cellular glutathione level.[28]
For doing the cell culture the cells were retained in DMEM media (Gibco), added with 10% fetal bovine serum (Himedia, India), 1% penicillin and streptomycin and 1% of Glutmax (Gibco, Thermo Scientific, USA) at 37°C in 5% CO2. […]
In vitro cytotoxicity study was measured by standard MTT assay protocol.1 First the prepared complexes (IrL1-IrL5) were dissolved in 0.1% DMSO followed by dilution with DMEM medium. […] Then the resultant suspension was kept on micro vibrator for 10 min and the absorbance was recorded at λ = 570 nm in ELISA plate reader. […] The data were represented as the growth inhibition percentage i.e. % growth inhibition = 100 − [(AD × 100)/AB], where AD, measured absorbance in wells which contain samples and AB, measured absorbance for blank wells (cells with a medium and a vehicle). […]

“[Iridium(III)-Cp*-2-(naphthalen-1-yl)-1H-imidazo[4,5-f][1,10]phenanthroline]PF6 [IrL1]”: under “aqueous DMSO (H2O : DMSO = 9 : 1), after 24 h”, the decrease in absorbance is given as 15–30%. Also, the “effect of GSH on stability” value (excess (10 eq.) glutathione, time-dependent UV spectroscopy) is reported as “GSH didn't have much impact on the stability”.
